We go through 53 molecules from ChEMBL document CHEMBL1697821, “Development of a phospholipidosis database and predictive quantitative structure-activity relationship (QSAR) models” (Toxicol Mech Methods, 2008).

Each structure is given as a SMILES string.

The data set has as its system Phospholipidosis. The data set is described as follows: Literature-mined public compounds from Kruhlak et al phospholipidosis modelling dataset.
Consider `O=C1C[C@@H]2OCC=C3CN4CC[C@]56c7ccccc7N1[C@H]5[C@H]2[C@H]3C[C@H]46` [STRYCHNINE], for which the Phospholipidosis entry is “Negative: based on the absence of positive reported data from WMDD”.
To `NS(=O)(=O)c1cc2c(cc1C(F)(F)F)NCNS2(=O)=O` [HYDROFLUMETHIAZIDE] belongs “Negative: based on the absence of positive reported data from WMDD”; to `CCOC(=O)NC(C)(C)Cc1ccc(Cl)cc1` [CLOFOREX], “Negative: confirmed by electron microscopy”.
To `O=C(NCC1CCCCN1)c1cc(OCC(F)(F)F)ccc1OCC(F)(F)F` (stereo not drawn) [FLECAINIDE] belongs “Negative: confirmed by electron microscopy”; to `Nc1ccn([C@@H]2O[C@H](CO)[C@@H](O)[C@@H]2O)c(=O)n1` [CYTARABINE], “Negative: based on the absence of positive reported data from WMDD”.
To `CCCCCCCCCCC(=O)O[C@H]1CC[C@H]2[C@@H]3CCc4cc(O)ccc4[C@H]3CC[C@]12C` [ESTRADIOL UNDECYLATE] belongs “Negative: based on the absence of positive reported data from WMDD”; to `CCC(COC(=O)c1cc(OC)c(OC)c(OC)c1)(c1ccccc1)N(C)C` (stereo not drawn) [TRIMEBUTINE], “Negative: based on the absence of positive reported data from WMDD”.
On to `OCCN1CCN(CCCN2c3ccccc3C=Cc3ccccc32)CC1` [OPIPRAMOL], for which the Phospholipidosis entry is given as “Negative: based on the absence of positive reported data from WMDD”.
On to `CCN(CC)CC(=O)Nc1c(C)cccc1C` [LIDOCAINE], for which the Phospholipidosis entry was “Positive: weak inducer based on presence of foamy macrophages and cytoplasmic vacuolations”.
Consider `CCCCN(CCCC)CCC(O)c1cc2c(Cl)cc(Cl)cc2c2cc(C(F)(F)F)ccc12` (stereo not drawn) [HALOFANTRINE], for which the Phospholipidosis result is “Negative: based on the absence of positive reported data from WMDD”.
As to `NCC[C@H](O)C(=O)N[C@@H]1C[C@H](N)[C@@H](O[C@H]2O[C@H](CN)[C@@H](O)[C@H](O)[C@H]2O)[C@H](O)[C@H]1O[C@H]1O[C@H](CO)[C@@H](O)[C@H](N)[C@H]1O` [AMIKACIN], the Phospholipidosis result is recorded as “Positive: strong inducer confirmed by electron microscopy”.
As for `NS(=O)(=O)c1cc(Cl)c(Cl)c(S(N)(=O)=O)c1` [DICHLORPHENAMIDE], the Phospholipidosis result is reported as “Negative: based on the absence of positive reported data from WMDD”.
To `C[C@H]1[C@H](c2ccccc2)OCCN1C` [PHENDIMETRAZINE] belongs “Negative: based on the absence of positive reported data from WMDD”; to `CN1CCN(CCCCN2C(=O)CN(/N=C/c3ccc(-c4ccc(Cl)cc4)o3)C2=O)CC1.Cl.Cl` [AZIMILIDE DIHYDROCHLORIDE], “Positive: weak inducer based on presence of foamy macrophages and cytoplasmic vacuolations”.
To `COCCOC(=O)C1=C(C)NC(C)=C(C(=O)OC(C)C)C1c1cccc([N+](=O)[O-])c1` (stereo not drawn) [NIMODIPINE] belongs “Negative: based on the absence of positive reported data from WMDD”; to `C[C@]12CC[C@H]3[C@@H](CC=C4C[C@@H](O)CC[C@@]43C)[C@@H]1CC[C@@H]2O` [ANDROSTENEDIOL], “Negative: based on the absence of positive reported data from WMDD”.
To `Cc1ccc(C)c(OCCCC(C)(C)C(=O)O)c1` [GEMFIBROZIL] belongs “Negative: confirmed by electron microscopy”.
In the case of `CCOC(=O)c1cncn1[C@H](C)c1ccccc1` [ETOMIDATE], the Phospholipidosis entry is given as “Negative: based on the absence of positive reported data from WMDD”.
To `C1CNCCN1.C[C@]12CC[C@@H]3c4ccc(OS(=O)(=O)O)cc4CC[C@H]3[C@@H]1CCC2=O` [ESTROPIPATE] belongs “Negative: based on the absence of positive reported data from WMDD”.
To `Oc1ccc2c(c1)[C@@]13CCCC[C@@]1(O)[C@@H](C2)N(CC1CCC1)CC3` [BUTORPHANOL] belongs “Negative: based on the absence of positive reported data from WMDD”; to `CCCC(CCC)C(N)=O` [VALPROMIDE], “Negative: based on the absence of positive reported data from WMDD”; to `O=C1c2ccccc2C(=O)C1c1ccccc1` [PHENINDIONE], “Negative: based on the absence of positive reported data from WMDD”.
Take `O=S(=O)(O)c1ccc(/N=N/c2cc(CO)c(O)c(/N=N/c3ccc(S(=O)(=O)O)c4ccccc34)c2O)c2ccccc12` [BROWN HT]: the Phospholipidosis result was “Negative: based on the absence of positive reported data from WMDD”.
As to `C#C[C@]1(OC(C)=O)CC[C@H]2[C@@H]3CCC4=CC(=O)CC[C@@H]4[C@H]3CC[C@@]21C` [NORETHINDRONE ACETATE], the Phospholipidosis entry is reported as “Negative: based on the absence of positive reported data from WMDD”.
Take `COc1cc(C(=O)N2CCOCC2)cc(OC)c1OC` [TRIMETOZINE]: the Phospholipidosis result is “Negative: based on the absence of positive reported data from WMDD”.
Consider `Nc1ccn([C@@H]2CS[C@H](CO)O2)c(=O)n1` [LAMIVUDINE], for which the Phospholipidosis entry is “Negative: based on the absence of positive reported data from WMDD”.
To `CCc1c(C)[nH]c2c1C(=O)C(CN1CCOCC1)CC2` (stereo not drawn) [MOLINDONE] belongs “Negative: based on the absence of positive reported data from WMDD”; to `NC[C@H]1Cc2ccc(F)cc2[C@@H](c2ccccc2)O1`, “Positive: strong inducer confirmed by electron microscopy”.
To `Cc1ccsc1C(=CCCN1CCC[C@@H](C(=O)O)C1)c1sccc1C` [TIAGABINE] belongs “Negative: based on the absence of positive reported data from WMDD”; to `CN(C)CCCN1c2ccccc2Sc2ccccc21` [PROMAZINE], “Positive: weak inducer based on presence of foamy macrophages and cytoplasmic vacuolations”; to `NC12CC3CC(CC(C3)C1)C2` [AMANTADINE], “Positive: strong inducer confirmed by electron microscopy”.
For the molecule `CCCCCCCCCC(=O)OCCN1CCN(CCCN2c3ccccc3Sc3ccc(C(F)(F)F)cc32)CC1` [FLUPHENAZINE DECANOATE], the Phospholipidosis result is recorded as “Negative: based on the absence of positive reported data from WMDD”.
To `Cc1cc2nc3c(=O)[nH]c(=O)nc-3n(C[C@H](O)[C@H](O)[C@H](O)COP(=O)(O)O)c2cc1C` [RIBOFLAVIN 5'-PHOSPHATE] belongs “Negative: based on the absence of positive reported data from WMDD”; to `OCC(O)CO` [GLYCERIN], “Negative: based on the absence of positive reported data from WMDD”; to `CN1[C@@H]2CC[C@H]1C[C@@H](OC(c1ccccc1)c1ccccc1)C2` [BENZTROPINE], “Negative: based on the absence of positive reported data from WMDD”.
To `Nc1nc(F)nc2c1ncn2[C@@H]1O[C@H](COP(=O)(O)O)[C@@H](O)[C@@H]1O` [FLUDARABINE PHOSPHATE] belongs “Negative: based on the absence of positive reported data from WMDD”; to `CN(C)CCCN1c2ccccc2CCc2ccccc21` [IMIPRAMINE], “Positive: strong inducer confirmed by electron microscopy”.
Consider `c1ccc([C@H]2CN3CCSC3=N2)cc1` [LEVAMISOLE], for which the Phospholipidosis result is recorded as “Negative: based on the absence of positive reported data from WMDD”.
To `CN1CCN(C2=Nc3cc(Cl)ccc3Nc3ccccc32)CC1` [CLOZAPINE] belongs “Positive: strong inducer confirmed by electron microscopy”.
As for `CCCN(CCC)S(=O)(=O)c1ccc(C(=O)O)cc1` [PROBENECID], the Phospholipidosis result is recorded as “Negative: based on the absence of positive reported data from WMDD”.
To `C[N+]1(C)CCCC(OC(=O)C(O)(c2ccccc2)c2ccccc2)C1.[Br-]` (stereo not drawn) [MEPENZOLATE BROMIDE] belongs “Negative: based on the absence of positive reported data from WMDD”; to `O[C@H]1[C@H](O)[C@@H](O)[C@H](O)[C@@H](O)[C@H]1O` [INOSITOL], “Negative: based on the absence of positive reported data from WMDD”.
With `C=CC1=C(C)/C(=C/c2[nH]c(Cc3[nH]c(/C=C4\NC(=O)C(C)=C4C=C)c(C)c3CCC(=O)O)c(CCC(=O)O)c2C)NC1=O` [BILIRUBIN], the Phospholipidosis result is reported as “Positive: strong inducer confirmed by electron microscopy”.
To `Nc1nc2ncc(CNc3ccc(C(=O)N[C@@H](CCC(=O)O)C(=O)O)cc3)nc2c(=O)[nH]1` [FOLIC ACID] belongs “Negative: based on the absence of positive reported data from WMDD”; to `CN1CCC2=C(C1)C(c1ccccc1)c1ccccc12` (stereo not drawn) [PHENINDAMINE], “Negative: based on the absence of positive reported data from WMDD”.
Take `CN(Cc1cc(Br)cc(Br)c1N)C1CCCCC1` [BROMHEXINE]: the Phospholipidosis entry is “Positive: weak inducer based on presence of foamy macrophages and cytoplasmic vacuolations”.
To `C[C@](N)(Cc1ccc(O)c(O)c1)C(=O)O` [METHYLDOPA] belongs “Negative: confirmed by electron microscopy”; to `CCc1nn(CCCN2CCN(c3cccc(Cl)c3)CC2)c(=O)n1CCOc1ccccc1` [NEFAZODONE], “Negative: based on the absence of positive reported data from WMDD”; to `Cc1cn([C@H]2C[C@H](N=[N+]=[N-])[C@@H](CO)O2)c(=O)[nH]c1=O` [ZIDOVUDINE], “Negative: confirmed by electron microscopy”.
As for `C[C@H]1O[C@@H](O[C@H]2[C@@H](O)C[C@H](O[C@H]3[C@@H](O)C[C@H](O[C@H]4CC[C@@]5(C)[C@H](CC[C@@H]6[C@@H]5C[C@@H](O)[C@]5(C)[C@@H](C7=CC(=O)OC7)CC[C@]65O)C4)O[C@@H]3C)O[C@@H]2C)C[C@H](O)[C@@H]1O` [DIGOXIN], the Phospholipidosis entry is reported as “Negative: based on the absence of positive reported data from WMDD”.
For `C[N+](C)(C)CC(=O)O` [BETAINE], the Phospholipidosis result is “Negative: based on the absence of positive reported data from WMDD”.
To `C[C@]12C=CC(=O)C=C1CC[C@@H]1[C@@H]2CC[C@@]2(C)[C@H]1CC[C@]2(C)O` [METHANDROSTENOLONE] belongs “Negative: based on the absence of positive reported data from WMDD”; to `NS(=O)(=O)c1cc2c(cc1Cl)N=CNS2(=O)=O` [CHLOROTHIAZIDE], “Negative: based on the absence of positive reported data from WMDD”.
